System: 454973-116-R2-J3-PDC spheroids, viability, % test/control
Assay: Anticancer human tumor 454973-116-R2-J3-PDC patient-derived pancreatic carcinoma cell line growth inhibition [GQUAD]
Details: spheroids with HUVEC and MSC; for IC50: curve of first compound; for viability, T/C: stronger effect = lower value; active = viability on the fitted dose curve at most 10% of control; inactive = the rest
Excerpt: DNA G-quadruplex Stabilizer Agents in Combinations in Complex Spheroids
A high-throughput screen of multi-cell type tumor spheroids was designed to identify active combinations of DNA G-quadruplex stabilizer agents and targeted small molecules. Complex spheroids include a stromal component modeled by human endothelial cells (HUVEC) and fibroblasts modeled by human mesenchymal stem cells (MSCs). The concentration ranges selected for each drug and investigational agent were based upon clinically achievable concentrations if the clinical Cmax of the agent was known.
Compounds. The drugs and investigational agents: pidnarulex (CX-5461; NSC782164), APTO-253 (NSC789042), BRACO-19 (NSC847499), peposertib (NSC802822), ceralasertib (NSC780249), elimusertib (NSC800525), camonsertib (NSC841442), AZD-1390 (NSC803789), olaparib (NSC753686), talazoparib (NSC767125), ART-558 (NSC835418), sotorasib (NSC818433), MRTX-1133 (NSC836407), SN-38 (NSC673596), topotecan (NSC609699), etoposide (NSC141540), doxorubicin (NSC123127), gemcitabine (NSC613327), 5-fluorouracil (NSC19893), paclitaxel (NSC125973), vemurafenib (NSC761431), panobinostat (NSC761190), R-306465 (JNJ-16241199; NSC773264), adavosertib (NSC754352), TP-3654 (NSC805149), carboplatin (NSC241240), KSQ-4279 (NSC840948), and staurosporine (NSC755774) were obtained from the National Cancer Institute (NCI) Developmental Therapeutics Program Chemical Repository (34). The FDA-approved anticancer drug set is available from the NCI Developmental Therapeutics Program. […] The stock solutions were prepared in dimethyl sulfoxide (DMSO, Sigma-Aldrich, St. Louis, MO, cat. D2650) at 800-fold the tested concentration and stored at -70 degrees C prior to their use. All drugs and investigational agents were tested over a range starting from a high concentration at or near the clinical Cmax and decreasing in half-log increments. If the clinical Cmax for an agent had not been determined, the highest concentration tested was 10 microM.
2.3 Cell Culture. All cells were maintained in an incubator at 37 degrees C and 5% CO2 with 95% humidity. The PDC lines were cultured according to standard operating procedures established by the NCI PDMR. All PDCs were thawed and cultured in Matrigel-coated flasks prepared with a working solution of 1X Ham's F-12 nutrient mix, without supplementation (Invitrogen, cat. 11765054), 100 U/mL penicillin-streptomycin (Invitrogen, cat. 15140122), and 2.5% Matrigel (Corning Inc., cat. 354248) for the first three passages. The 857933-349-R-J2-PDC line was cultured in 6C/Colon 1B media, which includes advanced DMEM/F-12 (Thermo Fisher Scientific, cat. 12634028), 10 mM HEPES (Thermo Fisher Scientific, cat. 15630080), 1X GlutaMAX supplement (Thermo Fisher Scientific, cat. 35050061), 0.1 mg/mL primocin (InvivoGen, cat. ant-pm-2), 10% defined fetal bovine serum, heat inactivated (HyClone Laboratories Inc., cat. SH30070.03HI), 50% L-WRN conditioned media (ATCC, cat. CRL-3276), 1.25 mM N-Acetyl-L-cysteine (Sigma-Aldrich, cat. A9165), 10 mM nicotinamide (Sigma-Aldrich, cat. N0636), 1X B-27 supplement (Thermo Fisher Scientific, cat. 17504044), 1X N-2 supplement (Thermo Fisher Scientific, cat. 17502048), 10 microM Y-27632 dihydrochloride (Tocris Bioscience, cat. 1254), and 50 ng/mL human EGF recombinant protein (Thermo Fisher Scientific, cat. PHG0311). The 485176-168-R4-J1-PDC line was cultured in Panc media, which includes all 6C/Colon 1B media components plus 100 ng/mL human FGF-10 (Thermo Fisher Scientific, cat. 100-26), 500 nM SB-431542 (Selleckchem, cat. S1067), and gastrin (Tocris, cat. 3006).
[…]
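Note: spheroids exposed to compounds for seven days.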

COc1cc(C2c3cc4c(cc3C(OC3OC5COC(C)OC5C(O)C3O)C3COC(=O)C23)OCO4)cc(OC)c1O (configuration not stated) + Cc1[nH]c2ccc(F)cc2c1-c1nc2c3cccnc3c3ncccc3c2[nH]1
1.12 µM: IC50 (second compound 0.0316 µM)
1.13 µM: IC50 (second compound 1 µM)
1 µM: IC50 (second compound 3.16 µM)
inactive: viability, T/C (second compound 0.0316 µM, first compound 0.0316 µM) 112% | viability, T/C (second compound 0.0316 µM, first compound 0.1 µM) 92.4% | viability, T/C (second compound 0.0316 µM, first compound 0.316 µM) 99.7% | viability, T/C (second compound 0.0316 µM, first compound 1 µM) 52% | viability, T/C (second compound 0.0316 µM, first compound 3.16 µM) 22.7% | viability, T/C (second compound 0.0316 µM, first compound 10 µM) 13.3% | viability, T/C (second compound 0.1 µM, first compound 0.0316 µM) 103% | viability, T/C (second compound 0.1 µM, first compound 0.1 µM) 92.3% | viability, T/C (second compound 0.1 µM, first compound 0.316 µM) 88% | viability, T/C (second compound 0.1 µM, first compound 1 µM) 56.8% | viability, T/C (second compound 0.1 µM, first compound 3.16 µM) 25.6% | viability, T/C (second compound 0.1 µM, first compound 10 µM) 13.3% | viability, T/C (second compound 0.316 µM, first compound 0.0316 µM) 106% | viability, T/C (second compound 0.316 µM, first compound 0.1 µM) 101% | viability, T/C (second compound 0.316 µM, first compound 0.316 µM) 83.7% | viability, T/C (second compound 0.316 µM, first compound 1 µM) 55.6% | viability, T/C (second compound 0.316 µM, first compound 3.16 µM) 23.9% | viability, T/C (second compound 0.316 µM, first compound 10 µM) 12.4% | viability, T/C (second compound 1 µM, first compound 0.0316 µM) 93.7% | viability, T/C (second compound 1 µM, first compound 0.1 µM) 98.3% | viability, T/C (second compound 1 µM, first compound 0.316 µM) 86.2% | viability, T/C (second compound 1 µM, first compound 1 µM) 53.5% | viability, T/C (second compound 1 µM, first compound 3.16 µM) 21.2% | viability, T/C (second compound 1 µM, first compound 10 µM) 13.5% | viability, T/C (second compound 3.16 µM, first compound 0.0316 µM) 115% | viability, T/C (second compound 3.16 µM, first compound 0.1 µM) 94.7% | viability, T/C (second compound 3.16 µM, first compound 0.316 µM) 98.7% | viability, T/C (second compound 3.16 µM, first compound 1 µM) 48.5% | viability, T/C (second compound 3.16 µM, first compound 3.16 µM) 22.9% | viability, T/C (second compound 3.16 µM, first compound 10 µM) 13.4% | viability, T/C (second compound 10 µM, first compound 0.0316 µM) 97.1% | viability, T/C (second compound 10 µM, first compound 0.1 µM) 84.4% | viability, T/C (second compound 10 µM, first compound 0.316 µM) 80.7% | viability, T/C (second compound 10 µM, first compound 1 µM) 55.3% | viability, T/C (second compound 10 µM, first compound 3.16 µM) 23% | viability, T/C (second compound 10 µM, first compound 10 µM) 13.2%
1.3 µM: IC50 (second compound 0.1 µM)
1.17 µM: IC50 (second compound 10 µM)
1.18 µM: IC50 (second compound 0.316 µM)
